Where two headings read alike, the source gives them in different places.

Experiment [1] relates to EGFR L858R/T790M/C797S Ba/F3 cell line. The experiment can be described thus: Ba/F3 cell proliferation (MTS assay), EGFR L858R/T790M/C797S. In kind it is cell-based, murine. Particulars: for Activity (% cetuximab); inhibition of proliferation: compound at 1 μM in the presence of 1 μg/mL cetuximab, EGFR L858R/T790M/C797S; for Activity (% DMSO control); inhibition of proliferation: compound at 1 μM, EGFR L858R/T790M/C797S Ba/F3. The protocol:
(§1) The EGFR mutant L858R, Del E746_A750, L858R/T790M, DelE746_A750/T790M, L858R/T790M/C797S and Del/T790M/C797S Ba/F3 cells were previously described (Zhou et al., Nature 462, (2009), 1070-1074). All cell lines were maintained in RPM 1640 (Cellgro; Mediatech Inc., Herndon, Calif.) supplemented with 10% FBS 100 units/mL penicillin, 100 units/mL streptomycin, and 2 mM glutamine. L858R cells were maintained in ACL-4 media (Invitrogen, Carlsbad, Calif.) supplemented with 5% FBS, 100 units/mL penicillin, 100 units/mL streptomycin, and 2 mM glutamine. The EGFR 1941R mutation was introduced via site directed mutagenesis using the Quick Change Site-Directed Mutagenesis kit (Stratagene: La Jolla, Calif.) according to the manufacturer's instructions. All constructs were confirmed by DNA sequencing. The constructs were shuttled into the retroviral vector JP1540 using the BD Creator™ System (BD Biosciences). Ba/F3 cells were infected with retrovirus and according to standard protocols, as described previously (Zhou 2009). Stable clones were obtained by selection in puromycin (2 μg/ml).
Growth and inhibition of growth was assessed by MTS assay and was performed according to previously established methods (Zhou 2009). The MTS assay is a colorimetric method for determining the number of viable cells that is based on the bioreduction of MTS by cells to a formazan product that is soluble in cell culture medium and can be detected spectrophotometrically. Ba/F3 cells of different EGFR genotypes were exposed to treatment and the number of cells used per experiment determined empirically and has been previously established (Zhou 2009). All experimental points were set up in six wells and all experiments were repeated at least three times. […] The curves were fitted using anon-linear regression model with a sigmoidal dose response.

Experiment [2] addresses T1, EGFR T790M/L858R Ba/F3 cell line (Homo sapiens, UniProt P00533, T790M/L858R, cells depend on it).
T1 construct: "The constructs were shuttled into the retroviral vector JP1540 using the BD Creator™ System (BD Biosciences)
Briefly: Ba/F3 cell proliferation (MTS assay), EGFR T790M/L858R. The experiment is classed as cell-based, murine. Particulars: for Activity (% cetuximab); inhibition of proliferation: compound at 1 μM in the presence of 1 μg/mL cetuximab; for Activity (% cetuximab); inhibition of proliferation / Activity (% DMSO control); inhibition of proliferation: EGFR T790M/L858R Ba/F3; for Activity (% DMSO control); inhibition of proliferation: compound at 1 μM. The protocol: as §1, with “All” for “The EGFR mutant L858R, Del E746_A750, L858R/T790M, DelE746_A750/T790M, L858R/T790M/C797S and Del/T790M/C797S Ba/F3 cells were previously described (Zhou et al., Nature 462, (2009), 1070-1074). All”, “L858R cells were maintained in ACL-4 media (Invitrogen, Carlsbad, Calif.) supplemented with 5% FBS, 100 units/mL penicillin, 100 units/mL streptomycin, and 2 mM glutamine.” left out
Growth and inhibition of growth was assessed by MTS assay and was performed according to previously established methods (Zhou 2009). The MTS assay is a colorimetric method for determining the number of viable cells that is based on the bioreduction of MTS by cells to a formazan product that is soluble in cell culture medium and can be detected spectrophotometrically. […] All experimental points were set up in six wells and all experiments were repeated at least three times. […] The curves were fitted using anon-linear regression model with a sigmoidal dose response.

Experiment [3] addresses T2, recombinant EGFR T790M/L858R kinase (Homo sapiens, UniProt P00533, L858R/T790M).
T2 construct: Constructs spanning residues 696-1022 of the human EGFR; GST (cleaved yes); made in house; host or cells: Sf9 insect cells
Briefly: HTRF-based EGFR biochemical assay. Here is the method:
EGFR kinase proteins were purified by glutathione-affinity chromatography followed by size-exclusion chromatography after cleavage with TEV or thrombin to remove the GST fusion partner following established procedures. (Yun 2008; Yun 2007).
EGFR biochemical assays were carried out using a homogeneous time-resolved fluorescence (HTRF) assay as described previously. The reaction mixtures contained 1 μM biotin-Lck-peptide substrate, wild type or mutant EGFR enzyme in reaction buffer (50 mM HEPES pH 7.1, 10 mM MgCl2, 0.01% BSA. 1 mM TCEP and 0.1 mM Na3VO4) at a final volume of 10 μL. […] All reactions were carried out at room temperature in white ProxiPlate™ 384-well Plus plates (PerkinElmer) and were quenched with 5 μL of 0.2 M EDTA at 60 min. Five μL per well of the detection reagent containing 2.5 ng PT66K (Cis-bio) and 0.05 μg SAXL (Prozyme) were added, and the plates were then incubated at room temperature for 1 hour and read with an EnVision plate reader.

Where [4] appears, read: absence of cetuximab, read-out: Ba/F3 cellular activity (EC50) T790M/L858R.
Where [5] appears, read: read-out: Ba/F3 cellular activity (EC50) T790M/L858R + Cetuximab (1 μg/mL), presence of 1 μg/mL cetuximab.

T2 sequence (P00533 696-1022 T790M/L858R): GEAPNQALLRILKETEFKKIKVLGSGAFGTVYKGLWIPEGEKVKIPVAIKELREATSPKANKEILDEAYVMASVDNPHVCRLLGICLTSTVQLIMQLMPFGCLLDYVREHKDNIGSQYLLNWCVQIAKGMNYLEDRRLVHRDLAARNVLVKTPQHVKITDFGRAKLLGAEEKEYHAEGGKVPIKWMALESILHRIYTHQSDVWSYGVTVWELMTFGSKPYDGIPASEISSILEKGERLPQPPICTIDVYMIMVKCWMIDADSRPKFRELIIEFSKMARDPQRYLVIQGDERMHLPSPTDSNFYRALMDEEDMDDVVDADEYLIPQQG
T1 sequence (P00533 whole entry T790M/L858R): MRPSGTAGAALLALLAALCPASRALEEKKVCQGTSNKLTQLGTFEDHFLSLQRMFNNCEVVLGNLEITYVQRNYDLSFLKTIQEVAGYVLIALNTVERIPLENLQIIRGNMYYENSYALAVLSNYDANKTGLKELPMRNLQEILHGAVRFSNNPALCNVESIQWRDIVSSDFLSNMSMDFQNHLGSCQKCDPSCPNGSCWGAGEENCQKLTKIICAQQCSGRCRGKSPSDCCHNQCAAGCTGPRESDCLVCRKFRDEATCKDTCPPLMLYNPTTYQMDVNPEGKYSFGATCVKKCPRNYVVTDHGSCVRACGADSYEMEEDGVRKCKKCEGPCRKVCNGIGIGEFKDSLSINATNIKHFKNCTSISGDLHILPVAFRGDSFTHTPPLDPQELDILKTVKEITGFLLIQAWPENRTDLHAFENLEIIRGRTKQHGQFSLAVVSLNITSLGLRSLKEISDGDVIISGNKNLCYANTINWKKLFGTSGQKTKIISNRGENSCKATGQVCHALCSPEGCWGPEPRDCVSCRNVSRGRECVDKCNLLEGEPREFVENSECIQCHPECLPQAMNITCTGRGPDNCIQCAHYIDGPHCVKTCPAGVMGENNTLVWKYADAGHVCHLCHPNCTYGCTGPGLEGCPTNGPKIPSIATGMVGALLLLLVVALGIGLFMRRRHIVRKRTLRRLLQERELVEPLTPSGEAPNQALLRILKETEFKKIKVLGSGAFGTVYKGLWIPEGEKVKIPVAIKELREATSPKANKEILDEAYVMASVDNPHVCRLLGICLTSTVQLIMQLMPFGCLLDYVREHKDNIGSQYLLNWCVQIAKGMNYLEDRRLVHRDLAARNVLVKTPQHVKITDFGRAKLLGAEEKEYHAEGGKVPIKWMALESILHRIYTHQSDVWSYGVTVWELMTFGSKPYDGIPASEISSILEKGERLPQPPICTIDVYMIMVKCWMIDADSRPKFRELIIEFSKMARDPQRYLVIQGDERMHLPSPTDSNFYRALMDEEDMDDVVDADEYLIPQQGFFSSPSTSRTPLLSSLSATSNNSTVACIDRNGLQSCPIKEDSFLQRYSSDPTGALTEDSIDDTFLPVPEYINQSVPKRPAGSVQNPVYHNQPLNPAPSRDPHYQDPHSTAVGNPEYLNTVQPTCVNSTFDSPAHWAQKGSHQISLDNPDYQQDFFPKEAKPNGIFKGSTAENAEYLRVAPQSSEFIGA

In the case of `O=C1c2cc(-c3ccc(N4CCNCC4)cc3)ccc2Nc2ccc(F)cc2N1Cc1ccccc1` [Compound I-1], the “Activity (% cetuximab); inhibition of proliferation” value (shortened to “Activity (% cetuximab); inhibition”) in experiment [1] and in experiment [2] was “B (25 ≤ B < 50)” throughout. The “Activity (% DMSO control); inhibition of proliferation” value (from here on “Activity (% DMSO control); inhibition”) in experiment [1] and in experiment [2] was “D (75 ≤ D)” throughout. For the same molecule, the EC50 in experiment [2] (setting [4]) is not below 0.75 µM; in experiment [2] (setting [5]), 0.5 to 0.75 µM.
With `O=C1c2cc(-c3ccc4[nH]ccc4c3)ccc2Nc2ccc(F)cc2N1Cc1ccccc1` [Compound I-2], the “Activity (% cetuximab); inhibition” value in experiment [1] was “A (0 ≤ A < 25)”; in experiment [2] it was “B (25 ≤ B < 50)”. Further, the “Activity (% DMSO control); inhibition” value in experiment [1] and in experiment [2] was “D (75 ≤ D)” throughout. The IC50 in experiment [3] was less than 0.25 µM. The EC50 was not below 0.75 µM in experiment [2] (setting [4]) and less than 0.25 µM in experiment [2] (setting [5]).
As to `CN1CCC(n2cc(-c3ccc4c(c3)C(=O)N(Cc3ccccc3)c3cc(F)ccc3N4)cn2)CC1` [Compound I-3], the figures for the “Activity (% cetuximab); inhibition” value in experiment [1] and in experiment [2] were “C (50 ≤ C < 75)” and “B (25 ≤ B < 50)”, respectively. Also, the “Activity (% DMSO control); inhibition” value in experiment [1] and in experiment [2] was “D (75 ≤ D)” throughout. The IC50 in experiment [3] is less than 0.25 µM. For the same molecule, the EC50 in experiment [2] (setting [4]) was not below 0.75 µM; in experiment [2] (setting [5]) it was less than 0.25 µM.
For the molecule `O=C1c2cc(-c3ccc(-c4cn[nH]c4)cc3)ccc2Nc2ccc(F)cc2N1Cc1ccccc1` [Compound I-4], the “Activity (% cetuximab); inhibition” value in experiment [1] and in experiment [2] was “A (0 ≤ A < 25)” throughout. The “Activity (% DMSO control); inhibition” value in experiment [1] and in experiment [2] was “D (75 ≤ D)” in each case. Also, the IC50 in experiment [3] is less than 0.25 µM. Moreover, the EC50 in experiment [2] (setting [4]) is not below 0.75 µM; in experiment [2] (setting [5]), 0.25 to 0.5 µM.
In the case of `O=C1c2cc(-c3ccc(N4CCNCC4)cc3)ccc2Nc2ccc(F)cc2N1c1ccccc1` [Compound I-5], the “Activity (% cetuximab); inhibition” value in experiment [1] and in experiment [2] was “D (75 ≤ D)” each time. Moreover, the “Activity (% DMSO control); inhibition” value in experiment [1] and in experiment [2] was “D (75 ≤ D)” in each case. For the same molecule, the IC50 in experiment [3] is not below 0.75 µM. Besides, the EC50 in experiment [2] (setting [4]) and in experiment [2] (setting [5]) was not below 0.75 µM throughout.
For `O=C1c2cc(-c3ccc(N4CCNCC4)cc3)ccc2Nc2ccc(F)cc2N1Cc1cccnc1` [Compound I-6], the “Activity (% cetuximab); inhibition” value in experiment [1] and in experiment [2] was “D (75 ≤ D)” each time. For the same molecule, the “Activity (% DMSO control); inhibition” value in experiment [1] and in experiment [2] was “D (75 ≤ D)” in each case. The IC50 in experiment [3] is not below 0.75 µM. The EC50 in experiment [2] (setting [4]) and in experiment [2] (setting [5]) was not below 0.75 µM each time.
As for `O=C1c2cc(-c3ccc(N4CCNCC4)cc3)ccc2Nc2ccc(F)cc2N1Cc1nccs1` [Compound I-7], the entries for the “Activity (% cetuximab); inhibition” value in experiment [1] and in experiment [2] were “D (75 ≤ D)” and “C (50 ≤ C < 75)”, respectively. Besides, the “Activity (% DMSO control); inhibition” value in experiment [1] and in experiment [2] was “D (75 ≤ D)” throughout. The IC50 in experiment [3] was less than 0.25 µM. Further, the EC50 in experiment [2] (setting [4]) and in experiment [2] (setting [5]) was not below 0.75 µM throughout.
As for `O=C1c2cc(-c3ccc4[nH]ccc4c3)ccc2Nc2ccc(F)cc2N1c1ccccc1` [Compound I-8], the “Activity (% cetuximab); inhibition” value in experiment [1] and in experiment [2] was “D (75 ≤ D)” throughout. In addition, the “Activity (% DMSO control); inhibition” value in experiment [1] and in experiment [2] was “D (75 ≤ D)” throughout. In addition, in experiment [3], the IC50 was not below 0.75 µM. Moreover, the EC50 in experiment [2] (setting [4]) and in experiment [2] (setting [5]) was not below 0.75 µM in each case.
With `O=C1c2cc(-c3ccc4[nH]ccc4c3)ccc2Nc2ccc(F)cc2N1Cc1cccnc1` [Compound I-9], the “Activity (% cetuximab); inhibition” value in experiment [1] and in experiment [2] was “D (75 ≤ D)” in each case. Moreover, the “Activity (% DMSO control); inhibition” value in experiment [1] and in experiment [2] was “D (75 ≤ D)” each time. Moreover, in experiment [3], the half-inhibitory concentration (IC50) is not below 0.75 µM. The EC50 in experiment [2] (setting [4]) and in experiment [2] (setting [5]) was not below 0.75 µM throughout.
Take `O=C1c2cc(-c3ccc4[nH]ccc4c3)ccc2Nc2ccc(F)cc2N1Cc1nccs1` [Compound I-10]: the “Activity (% cetuximab); inhibition” value is given as “C (50 ≤ C < 75)” in experiment [1] and “D (75 ≤ D)” in experiment [2]. The “Activity (% DMSO control); inhibition” value in experiment [1] and in experiment [2] was “D (75 ≤ D)” each time. Also, the IC50 in experiment [3] is not below 0.75 µM. For the same molecule, the EC50 in experiment [2] (setting [4]) and in experiment [2] (setting [5]) was not below 0.75 µM each time.
For `O=C1c2cc(-c3ccc(N4CCNCC4)cc3)ccc2Nc2ccccc2N1Cc1ccccc1` [Compound I-11], the “Activity (% cetuximab); inhibition” value in experiment [1] was “C (50 ≤ C < 75)”; in experiment [2], “B (25 ≤ B < 50)”. The “Activity (% DMSO control); inhibition” value in experiment [1] and in experiment [2] was “D (75 ≤ D)” throughout. In experiment [3], the IC50 is less than 0.25 µM. Besides, the figures for the EC50 in experiment [2] (setting [4]) and in experiment [2] (setting [5]) were not below 0.75 µM and 0.25 to 0.5 µM, respectively.

(Values after US20200375999A1, “PHARMACEUTICAL COMBINATIONS OF EGFR INHIBITORS AND METHODS OF USE THEREOF” (DANA-FARBER CANCER INSTITUTE, INC., priority 2018, published 2020).)
